Results on three substances are retold here after patent publication US11318208B2, “Synthetic compound” (Syntab Therapeutics GmbH, priority 2016, dated 2022).

Square brackets hold non-standard residues; d marks the D form. Ends that are not written are not given here. * marks the point of attachment. Tyr(3-NO2) = N[C@@H](Cc1ccc(O)c([N+](=O)[O-])c1)C(=O)O; Hyp = O=C(O)[C@@H]1C[C@@H](O)CN1; For = O=C*

Assay [1] has as its system α3 Integrin. The assay is described as follows: FACS analysis of cell binding, binder targeting α3 Integrin. Further details: species or system human. The settings on record: FIG. 8; 200 nM biotinylated binder; K 562 does not express α3 Integrin. How it is done:
(§1) The binding capability of peptides or peptidomimectis, of synthetic compounds according to the invention to different cell lines displaying particular targets was investigated by using flow cytometry. Detached cells were incubated with biotinylated peptide/peptidomimetic or biotinylated synthetic compound in blocking buffer for at least 30 min of ice. The cells were washed twice with washing buffer followed by incubation with streptavidin labeled with the Peridinin-chlorophyll protein PerCP-Cy5.5 (BD Biosciences) for 15 minutes on ice. After one additional wash step, samples were analyzed using FACS Canto (at least 10,000 cells per sample were counted) for cells which have bound the biotinylated reagent plus the streptavidin-PerCP-Cy5.5. Overlay histograms of cells incubated with peptide or control peptide were generated and the geometrical mean fluorescence of each sample was determined in FloJo. The EC50 measurements were calculated using Graph Prism software.
(§2) The following cell lines were used. The presence or absence of the surface antigens α3 Integrin and αvβ6 Integrin has been verified by corresponding antibody tests: […]

Assay [2] concerns the target T1, α3 Integrin (Homo sapiens, UniProt P05556+P26006).
T1 construct: endogenous in cells; host or cells: A431
The description is as above. The settings on record: FIG. 8, 200 nM biotinylated binder, vs scrambled variant. The procedure:
as §1, §2

For assay [3], the target named is T2, αvβ6 Integrin (Homo sapiens, UniProt P06756+P18564).
T2 construct: The presence or absence of the surface antigens α3 Integrin and αvβ6 Integrin has been verified by corresponding antibody tests; endogenous in cells
The assay is described as follows: FACS analysis of cell binding, binder targeting αvβ6 Integrin. The settings on record: FIG. 9, 10 nM biotinylated binder, vs scrambled variant. How it is done: as §1, §2
A general note: In flow cytometry, cells or beads pass a laser one at a time.

The test system of assay [4] is αvβ6 Integrin. Described as above. Further details: species or system human. The settings on record: FIG. 9, 10 nM biotinylated binder. The procedure: as §1, §2
The test system of assay [5] is human leukocytes. The assay can be described thus: Chemotaxis assay. In kind it is cell-based. The settings on record: FIG. 4A; in vitro in human leukocytes; compared with fMLF (devoid of an Ile residue). How it is done:
To test for the chemotactic effect of effector peptides or peptidomimetics, human leukocytes were re-suspended in Hanks' Buffered Saline Solution (HBSS, without Ca^2+, Mg^2+) with 10 mM Hepes pH 7.4 and 0.3% BSA at 10*10^6 cells/ml. Cells were pre-warmed at 37° C. for 20 min. After adding the effector dilutions in the above buffer into wells of 24-well plates (800 μl/well), a Millicell culture plate insert with 5 μm pore size was placed in each well, followed by immediate addition of 200 μl (2 million) leukocytes. The plate was incubated at 37° C. for 45 min. The total number of leukocytes that migrated to the bottom chamber was determined using a Neubauer chamber, or the numbers of transmigrated monocytes, neutrophils and lymphocytes were determined by flow cytometry (distinguish cell populations in FCS/SSC plot).

Another assay deals with mouse leukocytes. The assay can be described thus: DHR 123 oxidation assay (oxidative burst), mouse leukocytes. In kind it is cell-based. The settings on record: FIG. 5; in vitro in mouse leukocytes; compared with fMLF. How it is done:
(§3) Oxidative burst in neutrophils form part of the cells host defense, and can be evoked, e.g., by the N-formyl peptide fMLP. (Kim et al, 2003). Oxidation assays are thus a useful tool to determine the potency of formyl peptides. The oxidative burst activity of neutrophils caused by incubation with effector peptides or peptidomimetics was measured by flow cytometry, quantifying the intracellular conversion of dihydrorhodamine 123 (DHR) to rhodamine. In brief, human or murine leukocytes (1.25*10^6 cells/ml) were incubated with catalase, cytochalasin B (Sigma) and DHR (Invitrogen) in Hanks' Buffered Saline Solution (HBSS, without Ca^2+, Mg^2+) with 10 mM Hepes pH 7.4, 5 mM EDTA and 0.3% BSA at 37° C. for 10 minutes followed by incubation with the different effector peptides or peptidomimetics at different concentrations for 15 minutes at 37° C. PMA was used as a positive control.
(§4) All samples were fixed in formaldehyde and kept on ice until analysis using FACS Canto (at least 20,000 cells per sample were counted). Neutrophils were identified based on forward and side scatter characteristics. Analysis of DHR fluorescence was performed by side scatter/FL2 dot plots. Percent of DHR-positive cells were identified by gating on a negative (unstimulated) control sample.

In assay [6] the test system is human leukocytes. The assay is described as follows: DHR 123 oxidation assay (oxidative burst), human leukocytes. In kind it is cell-based. The settings on record: FIG. 4B; in vitro in human leukocytes; compared with fMLF. The procedure: as §3, §4

T1 sequence (P26006 33-872 limits assumed): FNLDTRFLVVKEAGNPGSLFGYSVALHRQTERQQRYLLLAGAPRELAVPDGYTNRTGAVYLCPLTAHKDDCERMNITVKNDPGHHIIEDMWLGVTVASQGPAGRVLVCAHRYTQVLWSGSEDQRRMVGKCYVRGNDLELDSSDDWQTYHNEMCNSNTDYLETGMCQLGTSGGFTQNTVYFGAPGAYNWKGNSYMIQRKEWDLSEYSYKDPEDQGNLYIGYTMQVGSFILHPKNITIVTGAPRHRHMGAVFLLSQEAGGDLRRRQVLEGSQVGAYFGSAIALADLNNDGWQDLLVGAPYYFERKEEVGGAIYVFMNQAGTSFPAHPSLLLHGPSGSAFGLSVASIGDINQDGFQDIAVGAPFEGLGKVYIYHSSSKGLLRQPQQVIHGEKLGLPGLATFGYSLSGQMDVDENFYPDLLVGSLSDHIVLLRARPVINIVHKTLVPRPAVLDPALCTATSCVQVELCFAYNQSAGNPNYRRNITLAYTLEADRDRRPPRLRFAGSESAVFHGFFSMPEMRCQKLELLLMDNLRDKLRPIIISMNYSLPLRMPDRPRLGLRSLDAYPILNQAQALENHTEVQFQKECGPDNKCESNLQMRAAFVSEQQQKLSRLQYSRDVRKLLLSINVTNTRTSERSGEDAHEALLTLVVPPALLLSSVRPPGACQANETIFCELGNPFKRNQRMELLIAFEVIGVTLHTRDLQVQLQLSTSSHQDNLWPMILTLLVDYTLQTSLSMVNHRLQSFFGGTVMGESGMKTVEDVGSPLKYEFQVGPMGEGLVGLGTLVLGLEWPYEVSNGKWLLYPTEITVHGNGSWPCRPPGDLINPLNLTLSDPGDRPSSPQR
T1 sequence (P26006 873-1051 limits assumed): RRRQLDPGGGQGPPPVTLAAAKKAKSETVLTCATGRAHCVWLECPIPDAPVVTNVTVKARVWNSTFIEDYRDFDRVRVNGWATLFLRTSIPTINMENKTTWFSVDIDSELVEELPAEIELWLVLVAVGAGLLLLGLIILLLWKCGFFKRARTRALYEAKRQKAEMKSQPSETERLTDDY
T1 sequence (P05556 21-798): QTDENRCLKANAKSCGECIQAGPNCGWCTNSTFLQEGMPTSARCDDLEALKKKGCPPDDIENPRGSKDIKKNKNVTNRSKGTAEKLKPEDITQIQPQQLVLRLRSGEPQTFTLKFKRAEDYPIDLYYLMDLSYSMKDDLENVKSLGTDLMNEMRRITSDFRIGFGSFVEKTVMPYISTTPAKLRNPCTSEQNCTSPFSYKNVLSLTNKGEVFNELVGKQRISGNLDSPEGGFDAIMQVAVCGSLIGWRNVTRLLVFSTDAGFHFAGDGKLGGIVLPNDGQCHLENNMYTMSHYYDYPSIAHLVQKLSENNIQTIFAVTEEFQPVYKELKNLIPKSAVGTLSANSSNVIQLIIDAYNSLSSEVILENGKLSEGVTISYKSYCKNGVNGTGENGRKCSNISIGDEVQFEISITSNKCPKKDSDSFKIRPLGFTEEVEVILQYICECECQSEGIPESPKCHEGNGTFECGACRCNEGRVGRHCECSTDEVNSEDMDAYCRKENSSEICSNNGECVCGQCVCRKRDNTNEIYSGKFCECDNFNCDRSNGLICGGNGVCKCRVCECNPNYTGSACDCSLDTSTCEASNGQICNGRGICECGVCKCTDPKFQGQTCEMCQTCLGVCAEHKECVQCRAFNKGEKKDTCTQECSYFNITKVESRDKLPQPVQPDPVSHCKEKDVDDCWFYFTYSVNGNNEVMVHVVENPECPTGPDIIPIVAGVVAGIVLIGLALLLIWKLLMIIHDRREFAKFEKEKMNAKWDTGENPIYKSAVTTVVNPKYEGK
T2 sequence (P06756 31-889 limits assumed): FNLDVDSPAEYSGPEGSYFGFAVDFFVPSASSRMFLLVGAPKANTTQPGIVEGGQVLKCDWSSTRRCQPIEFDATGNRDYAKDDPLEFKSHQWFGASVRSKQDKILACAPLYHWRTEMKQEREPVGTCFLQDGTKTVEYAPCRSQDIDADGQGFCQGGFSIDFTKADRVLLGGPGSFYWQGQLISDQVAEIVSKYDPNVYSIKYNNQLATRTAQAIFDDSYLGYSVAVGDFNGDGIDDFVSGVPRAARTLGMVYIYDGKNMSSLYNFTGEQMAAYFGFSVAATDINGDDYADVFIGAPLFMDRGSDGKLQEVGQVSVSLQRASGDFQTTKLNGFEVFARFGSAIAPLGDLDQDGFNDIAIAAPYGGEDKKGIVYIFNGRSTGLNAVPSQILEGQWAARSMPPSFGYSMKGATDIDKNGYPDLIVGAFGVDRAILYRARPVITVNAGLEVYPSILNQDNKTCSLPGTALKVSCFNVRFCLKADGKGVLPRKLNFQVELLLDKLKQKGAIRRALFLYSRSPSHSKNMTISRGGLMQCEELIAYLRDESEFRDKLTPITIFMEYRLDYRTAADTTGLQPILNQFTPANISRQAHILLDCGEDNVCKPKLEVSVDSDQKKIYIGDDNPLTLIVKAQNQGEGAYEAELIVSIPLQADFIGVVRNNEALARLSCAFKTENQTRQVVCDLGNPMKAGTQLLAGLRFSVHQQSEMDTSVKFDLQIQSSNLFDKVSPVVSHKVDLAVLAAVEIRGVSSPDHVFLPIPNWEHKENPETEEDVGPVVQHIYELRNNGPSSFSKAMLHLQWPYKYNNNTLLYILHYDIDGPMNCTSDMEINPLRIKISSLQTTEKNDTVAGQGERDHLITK
T2 sequence (P06756 891-1048 limits assumed): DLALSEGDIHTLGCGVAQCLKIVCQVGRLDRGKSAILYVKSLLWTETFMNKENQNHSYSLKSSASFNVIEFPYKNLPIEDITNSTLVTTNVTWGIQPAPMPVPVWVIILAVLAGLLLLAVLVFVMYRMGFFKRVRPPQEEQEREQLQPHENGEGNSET
T2 sequence (P18564 22-788): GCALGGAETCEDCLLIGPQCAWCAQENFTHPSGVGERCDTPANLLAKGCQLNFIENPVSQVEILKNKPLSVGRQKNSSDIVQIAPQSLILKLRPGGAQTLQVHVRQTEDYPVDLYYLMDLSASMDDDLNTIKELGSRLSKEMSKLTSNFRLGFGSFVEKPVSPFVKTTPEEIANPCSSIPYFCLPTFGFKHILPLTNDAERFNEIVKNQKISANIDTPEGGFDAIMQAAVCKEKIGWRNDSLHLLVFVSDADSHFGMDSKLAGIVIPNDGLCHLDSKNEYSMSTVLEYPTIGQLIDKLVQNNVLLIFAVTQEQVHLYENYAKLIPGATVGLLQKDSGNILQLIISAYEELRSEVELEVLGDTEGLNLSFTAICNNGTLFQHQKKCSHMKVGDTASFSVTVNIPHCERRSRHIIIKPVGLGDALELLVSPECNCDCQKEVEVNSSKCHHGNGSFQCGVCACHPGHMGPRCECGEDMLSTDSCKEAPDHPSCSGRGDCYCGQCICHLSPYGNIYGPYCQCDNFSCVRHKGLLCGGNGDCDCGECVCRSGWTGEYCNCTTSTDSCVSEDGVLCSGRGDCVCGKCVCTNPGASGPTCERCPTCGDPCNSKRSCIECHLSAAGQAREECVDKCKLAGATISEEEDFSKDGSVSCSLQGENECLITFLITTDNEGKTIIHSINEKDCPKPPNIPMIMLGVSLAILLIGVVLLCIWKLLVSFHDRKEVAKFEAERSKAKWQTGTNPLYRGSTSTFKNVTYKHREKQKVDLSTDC

As to “SEQ ID NO: 1: peptidomimetic binder cdGY(3-NO2)GHypNc targeting α3 Integrin; tested biotinylated ([dC][dD]G[Tyr(3-NO2)]G[Hyp]N[dC]; cysteine pairing not given here; also: tested biotinylated, site not given here)”, the “binding to cell line K 562” value in the assay on α3 Integrin [1] is “do not bind”. For the same substance, in the assay with α3 Integrin [2] (A431 expresses α3 Integrin), the “binding to cell line A431” value was “binds”. Also, the “binding to cell line PC3” value with α3 Integrin [2] (PC3 expresses α3 Integrin) is “binds”. Besides, in the assay with α3 Integrin [2] (U87-MG expresses α3 Integrin), the “binding to cell line U87-MG” value is “binds”.
In the case of “SEQ ID NO: 2: peptide binder RGDLATLRQL targeting αvβ6 Integrin; tested biotinylated (also: biotinylated, place not given here)”, the “binding to cell line A431” value with αvβ6 Integrin [3] (A431 expresses αvβ6 Integrin) is on record as “binds”. Moreover, the “binding to cell line HT-29” value in the assay with αvβ6 Integrin [3] (HT-29 expresses αvβ6 Integrin) is “binds”. Besides, the “binding to cell line PC-3” value in the assay on αvβ6 Integrin [4] (PC-3 does not express αvβ6 Integrin) was “do not bind”. Besides, in the assay on αvβ6 Integrin [4] (U87-MG does not express αvβ6 Integrin), the “binding to cell line U87-MG” value is “do not bind”.
For “fMIFL: N-formyl methionine effector peptide fMIFL, comprises isoleucin; fM=N-formylmethionine, remaining letters L-amino acids (For-MIFL)”, the chemotactic effect result with human leukocytes [5] is recorded as “significantly better chemotactic effect”. Moreover, the “activation of oxidative bursts” value in the assay with mouse leukocytes and in the assay with human leukocytes [6] was “much better activation of oxidative bursts” in each case.
